Here are results for 10 molecules from ChEMBL document CHEMBL1201862, “PubChem BioAssay data set” (2004).

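In this assay, cells in 96-well plates receive the compound at five concentrations for 48 hours. Endpoints are linearly interpolated between the surrounding concentrations. Here, GI50 denotes the concentration required for 50% inhibition of growth.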 Calls of active or inactive are those of the source. Rule as the data show it: active = GI50 up to about 1.1 µM and inactive = higher. Bounds are passed on as bounds.

Among the test systems are 786-0; U-251; UACC-62; MOLT-4; SF-539; MDA-N; EKVX; SNB-75; SK-MEL-28; MDA-MB-435; Hs-578T; M14; OVCAR-3; SK-MEL-5; SF-295; MDA-MB-231; RXF 393; NCI/ADR-RES; KM12; OVCAR-8.
Holding throughout (test): inhibition of tumour cell growth, NCI panel, 48 h

Consider `CCc1nc2ccc(C(F)(F)F)cc2[nH]c1=O`, for which the GI50 with 786-0, in the assay on U-251, in the assay on UACC-62, in the assay with MOLT-4, in the assay on SF-539 and in the assay with MDA-N was > 100 µM (inactive) each time. Also, the GI50 in the assay on EKVX is 44.5 µM (inactive); in the assay with SNB-75, 89.5 µM (inactive); with SK-MEL-28, > 100 µM (inactive); in the assay on MDA-MB-435, > 100 µM (inactive); in the assay with Hs-578T it was > 100 µM (inactive); in the assay with M14, > 100 µM (inactive). Moreover, the GI50 in the assay with OVCAR-3 was > 100 µM (inactive); with SK-MEL-5, > 100 µM (inactive); with SF-295, > 100 µM (inactive); in the assay with MDA-MB-231, 50.6 µM (inactive); in the assay with RXF 393 it was > 100 µM (inactive); in the assay with NCI/ADR-RES, > 100 µM (inactive). The GI50 in the assay on KM12 and in the assay with OVCAR-8 was > 100 µM (inactive) each time.

Consider `CC(C#N)Nc1ccc(Oc2ccc(C(C)(C)c3ccc(Oc4ccc(NC(C)C#N)cc4)cc3)cc2)cc1` (stereo not given), for which the GI50 with 786-0 was > 100 µM (inactive); in the assay with U-251, > 100 µM (inactive); in the assay with UACC-62 it was > 100 µM (inactive); in the assay on MOLT-4, 16.5 µM (inactive); in the assay with SF-539 it was > 100 µM (inactive); in the assay with MDA-N, > 100 µM (inactive). The GI50 is > 100 µM (inactive) in the assay on EKVX; 92.5 µM (inactive) in the assay on SNB-75; > 100 µM (inactive) with SK-MEL-28; > 100 µM (inactive) with MDA-MB-435; 18 µM (inactive) with Hs-578T; > 100 µM (inactive) in the assay with M14. In addition, the GI50 with OVCAR-3 is > 100 µM (inactive); in the assay on SK-MEL-5 it was 50.6 µM (inactive); in the assay on SF-295, > 100 µM (inactive); in the assay with MDA-MB-231, > 100 µM (inactive); in the assay on RXF 393, > 100 µM (inactive); in the assay with NCI/ADR-RES, > 100 µM (inactive). The GI50 in the assay on KM12 and in the assay with OVCAR-8 was > 100 µM (inactive) in each case.

Regarding `CC12OOC(c3ccccc31)c1c2ccc2ccccc12` (stereo not given), the GI50 in the assay on 786-0 is 8.53 µM (inactive); in the assay with U-251, 14.7 µM (inactive); with UACC-62 it was 8.26 µM (inactive); in the assay on MOLT-4, 1.6 µM (inactive); with SF-539 it was 8.15 µM (inactive); in the assay with MDA-N it was 5.53 µM (inactive). The GI50 in the assay on EKVX is 5.45 µM (inactive); in the assay with SNB-75 it was 8.47 µM (inactive); with SK-MEL-28, 13.8 µM (inactive); with MDA-MB-435, 6.3 µM (inactive); with Hs-578T, 18.9 µM (inactive); with M14, 9.23 µM (inactive). Besides, the GI50 is 2.26 µM (inactive) in the assay with OVCAR-3; 8.53 µM (inactive) in the assay on SK-MEL-5; 7.11 µM (inactive) with SF-295; 12 µM (inactive) in the assay with MDA-MB-231; 1.18 µM (inactive) in the assay on RXF 393; 10 µM (inactive) in the assay on NCI/ADR-RES. Moreover, the GI50 is 2.62 µM (inactive) in the assay on KM12 and 6.71 µM (inactive) in the assay on OVCAR-8.

For `CCOC(=O)C(N)CSC(=O)NC` (stereo not given), the GI50 is 73.6 µM (inactive) with 786-0; 121 µM (inactive) in the assay on U-251; 81.8 µM (inactive) in the assay with UACC-62; 55.1 µM (inactive) with MOLT-4; > 83.6 µM (inactive) in the assay with SF-539; 39.8 µM (inactive) in the assay on MDA-N. In addition, the GI50 in the assay on EKVX was 269 µM (inactive); with SNB-75, 243 µM (inactive); in the assay with SK-MEL-28 it was 136 µM (inactive); in the assay with MDA-MB-435 it was 45 µM (inactive); in the assay on Hs-578T it was 204 µM (inactive); in the assay with M14, 67.9 µM (inactive). Besides, the GI50 in the assay with OVCAR-3 is 96.6 µM (inactive); with SK-MEL-5, 116 µM (inactive); in the assay with SF-295, 258 µM (inactive); in the assay on MDA-MB-231, 99.1 µM (inactive); with RXF 393, 105 µM (inactive); in the assay with NCI/ADR-RES, 89.9 µM (inactive). For the same molecule, the GI50 was 175 µM (inactive) in the assay on KM12 and 97.7 µM (inactive) with OVCAR-8.

Take `Cc1c(Cc2ccccc2)n(C(C)OCCN(OC(=O)Oc2ccccc2)C(=O)Oc2ccccc2)c(=O)[nH]c1=O` (stereo not given): the GI50 is 18.3 µM (inactive) in the assay on 786-0; 19 µM (inactive) in the assay on U-251; 16.3 µM (inactive) in the assay on UACC-62; 14.5 µM (inactive) with MOLT-4; 19.1 µM (inactive) in the assay with SF-539; 19.3 µM (inactive) in the assay on MDA-N. For the same molecule, the GI50 was 14.4 µM (inactive) in the assay on EKVX; 1.61 µM (inactive) with SNB-75; 21.3 µM (inactive) in the assay with SK-MEL-28; 23.4 µM (inactive) with MDA-MB-435; 12.9 µM (inactive) in the assay with Hs-578T; 16.1 µM (inactive) in the assay on M14. The GI50 in the assay on OVCAR-3 was 19 µM (inactive); with SK-MEL-5, 14.3 µM (inactive); in the assay with SF-295, 16 µM (inactive); in the assay on MDA-MB-231 it was 19.5 µM (inactive); in the assay with RXF 393 it was 15.8 µM (inactive); in the assay on NCI/ADR-RES, 16.9 µM (inactive). In addition, the GI50 in the assay with KM12 is 15.8 µM (inactive); in the assay with OVCAR-8 it was 16.9 µM (inactive).

With `O=c1[nH]c(=O)n([C@H]2C[C@H](O)[C@@H](CO)O2)cc1Br` [BROXURIDINE], the GI50 in the assay with 786-0, with U-251, with UACC-62, with MOLT-4, with SF-539 and with MDA-N was > 100 µM (inactive) each time. Moreover, the GI50 was > 100 µM (inactive) in the assay on EKVX; > 100 µM (inactive) in the assay with SNB-75; > 86.5 µM (inactive) with SK-MEL-28; > 100 µM (inactive) in the assay on MDA-MB-435; > 100 µM (inactive) in the assay on Hs-578T; > 86.7 µM (inactive) with M14. The GI50 is 25.9 µM (inactive) in the assay with OVCAR-3; > 100 µM (inactive) in the assay on SK-MEL-5; > 100 µM (inactive) in the assay with SF-295; > 100 µM (inactive) in the assay with MDA-MB-231; > 100 µM (inactive) in the assay with RXF 393; > 100 µM (inactive) with NCI/ADR-RES. Further, the GI50 with KM12 and in the assay with OVCAR-8 was > 100 µM (inactive) each time.

For `Oc1ccccc1-c1nn2c(CCCCCCCCc3nnc4sc(-c5ccccc5O)nn34)nnc2s1`, the GI50 in the assay on 786-0 was 14.7 µM (inactive); with U-251 it was 12.9 µM (inactive); in the assay on UACC-62 it was 7.06 µM (inactive); in the assay on MOLT-4 it was 8.39 µM (inactive); in the assay on SF-539 it was 8.53 µM (inactive); with MDA-N, 4.58 µM (inactive). Besides, the GI50 is 22.4 µM (inactive) with EKVX; 5.94 µM (inactive) in the assay on SNB-75; 24.6 µM (inactive) in the assay with SK-MEL-28; 5.18 µM (inactive) in the assay on MDA-MB-435; 8.57 µM (inactive) in the assay on Hs-578T; 11.2 µM (inactive) in the assay on M14. Besides, the GI50 with OVCAR-3 was 14.4 µM (inactive); in the assay with SK-MEL-5, 18.3 µM (inactive); with SF-295, 9.98 µM (inactive); with MDA-MB-231 it was 17.3 µM (inactive); in the assay on RXF 393, 10.2 µM (inactive); in the assay with NCI/ADR-RES it was 12 µM (inactive). The GI50 in the assay on KM12 is 21 µM (inactive); in the assay with OVCAR-8 it was 18.7 µM (inactive).

For the molecule `Clc1ccc(-c2nc3cc(C45CC6CC(CC(C6)C4)C5)ccc3[nH]2)cc1`, the GI50 in the assay with 786-0 was 39.4 µM (inactive); in the assay on U-251, 20.1 µM (inactive); with UACC-62, 31.3 µM (inactive); with MOLT-4, 0.551 µM (active); in the assay with SF-539, 51.6 µM (inactive); in the assay on MDA-N it was 32.1 µM (inactive). Further, the GI50 in the assay with EKVX was > 94.2 µM (inactive); in the assay on SNB-75 it was > 100 µM (inactive); with SK-MEL-28, 75 µM (inactive); with MDA-MB-435, 36.1 µM (inactive); in the assay on Hs-578T it was 62.7 µM (inactive); in the assay on M14, 17 µM (inactive). Further, the GI50 in the assay on OVCAR-3 was 21.7 µM (inactive); with SK-MEL-5, 7.18 µM (inactive); with SF-295, 57.7 µM (inactive); with MDA-MB-231, > 100 µM (inactive); in the assay on RXF 393, 72.6 µM (inactive); with NCI/ADR-RES, 20.5 µM (inactive). In addition, the GI50 is 13.1 µM (inactive) with KM12 and 28.7 µM (inactive) with OVCAR-8.

Consider `CCN1CCC(O)(c2ccc(Oc3ccccc3)cc2)C(C(=O)c2ccc(Oc3ccccc3)cc2)C1` (stereo not given), for which the GI50 is 5.5 µM (inactive) in the assay on 786-0; 11.6 µM (inactive) with U-251; 13.2 µM (inactive) with UACC-62; 13 µM (inactive) in the assay on MOLT-4; 8.45 µM (inactive) in the assay on SF-539; 13.8 µM (inactive) in the assay on MDA-N. Moreover, the GI50 with EKVX is 16 µM (inactive); in the assay on SNB-75, 14.5 µM (inactive); in the assay with SK-MEL-28, 13.6 µM (inactive); with MDA-MB-435, 12.9 µM (inactive); with Hs-578T it was 23.7 µM (inactive); with M14, 11.6 µM (inactive). The GI50 is 14.8 µM (inactive) in the assay with OVCAR-3; 12.5 µM (inactive) in the assay with SK-MEL-5; 14.2 µM (inactive) in the assay on SF-295; 14.6 µM (inactive) in the assay on MDA-MB-231; 22.2 µM (inactive) in the assay on RXF 393; 16.2 µM (inactive) in the assay with NCI/ADR-RES. Besides, the figures for the GI50 in the assay on KM12 and with OVCAR-8 were 4.85 µM (inactive) and 17.1 µM (inactive), respectively.

On to `CC1=C(C(=O)OC(C)C)C(c2ccccc2C(F)(F)F)C(C(=O)OC(CO[N+](=O)[O-])CO[N+](=O)[O-])=C(C)N1` (stereo not given), for which the GI50 in the assay with 786-0 was 2.87 µM (inactive); in the assay on U-251, 8.26 µM (inactive); in the assay on UACC-62 it was 3.99 µM (inactive); in the assay on MOLT-4 it was 2.17 µM (inactive); in the assay on SF-539, 9.48 µM (inactive); with MDA-N, 4.61 µM (inactive). Moreover, the GI50 with EKVX is 13.3 µM (inactive); in the assay with SNB-75, 2.21 µM (inactive); in the assay on SK-MEL-28 it was 16.8 µM (inactive); in the assay with MDA-MB-435, 6.28 µM (inactive); in the assay on Hs-578T it was 15.8 µM (inactive); in the assay with M14, 6.98 µM (inactive). The GI50 was 9.31 µM (inactive) with OVCAR-3; 5.52 µM (inactive) with SK-MEL-5; 4.21 µM (inactive) with SF-295; 12.3 µM (inactive) with MDA-MB-231; 9.16 µM (inactive) in the assay on RXF 393; 4.39 µM (inactive) in the assay on NCI/ADR-RES. Further, the GI50 in the assay with KM12 is 5.14 µM (inactive); in the assay on OVCAR-8, 8.13 µM (inactive).
